In PMC5784979, “Direct comparison of the four aldehyde oxidase enzymes present in mouse gives insight into their substrate specificities” (PLoS ONE, 2018):

Legend:
mAOX3 = molecular target: T1, mAOX3 (Mus musculus, UniProt G3X982); experiment: DCPIP reduction at […] nm, steady-state kinetics; type: biochemical; conditions: 100 μM DCPIP as electron acceptor, 50 mM Tris-HCl, 1 mM EDTA, pH 8.0, 37°C, corrected to 100% Mo saturation
T1 construct: gene Aox3; recombinant from E. coli TP1000 (plasmid pMMA1), Ni-NTA and Superdex 200 purified, chemically sulfurated, dimer (300 kDa)
T1 sequence (G3X982 1-1335): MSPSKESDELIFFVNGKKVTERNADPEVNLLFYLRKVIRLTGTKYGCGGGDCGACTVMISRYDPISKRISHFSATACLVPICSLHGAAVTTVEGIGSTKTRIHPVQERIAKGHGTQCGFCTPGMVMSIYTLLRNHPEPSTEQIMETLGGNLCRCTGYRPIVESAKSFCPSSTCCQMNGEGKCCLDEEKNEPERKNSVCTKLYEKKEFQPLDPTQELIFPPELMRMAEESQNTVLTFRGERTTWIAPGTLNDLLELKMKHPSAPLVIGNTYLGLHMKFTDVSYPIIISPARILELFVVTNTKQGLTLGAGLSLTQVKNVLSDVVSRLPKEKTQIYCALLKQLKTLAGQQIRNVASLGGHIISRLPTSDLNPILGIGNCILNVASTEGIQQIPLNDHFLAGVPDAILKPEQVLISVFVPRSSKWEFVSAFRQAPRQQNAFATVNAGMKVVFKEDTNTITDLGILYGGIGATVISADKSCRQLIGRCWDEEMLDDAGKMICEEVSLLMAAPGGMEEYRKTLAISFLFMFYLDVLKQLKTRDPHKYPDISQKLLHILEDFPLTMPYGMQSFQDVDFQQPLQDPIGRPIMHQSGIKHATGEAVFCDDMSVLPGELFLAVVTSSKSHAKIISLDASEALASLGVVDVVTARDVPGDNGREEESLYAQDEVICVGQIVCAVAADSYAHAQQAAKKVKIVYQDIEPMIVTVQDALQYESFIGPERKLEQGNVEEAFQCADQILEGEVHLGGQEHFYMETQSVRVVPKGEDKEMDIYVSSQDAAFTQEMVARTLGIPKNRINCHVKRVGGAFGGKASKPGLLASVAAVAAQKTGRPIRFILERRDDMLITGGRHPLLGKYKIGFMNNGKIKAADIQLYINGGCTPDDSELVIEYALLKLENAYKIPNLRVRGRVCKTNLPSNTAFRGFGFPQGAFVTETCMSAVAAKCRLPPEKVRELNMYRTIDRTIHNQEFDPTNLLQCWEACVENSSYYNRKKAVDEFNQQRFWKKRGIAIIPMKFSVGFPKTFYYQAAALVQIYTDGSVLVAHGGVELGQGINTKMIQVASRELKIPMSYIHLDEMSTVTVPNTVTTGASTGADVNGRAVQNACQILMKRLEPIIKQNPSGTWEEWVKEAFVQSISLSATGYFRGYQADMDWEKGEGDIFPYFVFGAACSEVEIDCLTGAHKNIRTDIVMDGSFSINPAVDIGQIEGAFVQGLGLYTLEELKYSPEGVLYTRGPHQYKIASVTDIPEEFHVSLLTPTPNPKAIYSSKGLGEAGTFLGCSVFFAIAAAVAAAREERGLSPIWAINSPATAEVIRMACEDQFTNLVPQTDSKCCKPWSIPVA

mAOX2 = molecular target: T2, mAOX2 (Mus musculus, UniProt Q5SGK3); experiment: DCPIP reduction at […] nm, steady-state kinetics; type: biochemical; conditions: 100 μM DCPIP as electron acceptor, 50 mM Tris-HCl, 1 mM EDTA, pH 8.0, 37°C, corrected to 100% Mo saturation
T2 construct: gene Aox2; recombinant from E. coli TP1000 (codon-optimized plasmid pMAOX2co), Ni-NTA and Superdex 200 purified, chemically sulfurated, dimer (300 kDa)
T2 sequence (Q5SGK3 1-1345): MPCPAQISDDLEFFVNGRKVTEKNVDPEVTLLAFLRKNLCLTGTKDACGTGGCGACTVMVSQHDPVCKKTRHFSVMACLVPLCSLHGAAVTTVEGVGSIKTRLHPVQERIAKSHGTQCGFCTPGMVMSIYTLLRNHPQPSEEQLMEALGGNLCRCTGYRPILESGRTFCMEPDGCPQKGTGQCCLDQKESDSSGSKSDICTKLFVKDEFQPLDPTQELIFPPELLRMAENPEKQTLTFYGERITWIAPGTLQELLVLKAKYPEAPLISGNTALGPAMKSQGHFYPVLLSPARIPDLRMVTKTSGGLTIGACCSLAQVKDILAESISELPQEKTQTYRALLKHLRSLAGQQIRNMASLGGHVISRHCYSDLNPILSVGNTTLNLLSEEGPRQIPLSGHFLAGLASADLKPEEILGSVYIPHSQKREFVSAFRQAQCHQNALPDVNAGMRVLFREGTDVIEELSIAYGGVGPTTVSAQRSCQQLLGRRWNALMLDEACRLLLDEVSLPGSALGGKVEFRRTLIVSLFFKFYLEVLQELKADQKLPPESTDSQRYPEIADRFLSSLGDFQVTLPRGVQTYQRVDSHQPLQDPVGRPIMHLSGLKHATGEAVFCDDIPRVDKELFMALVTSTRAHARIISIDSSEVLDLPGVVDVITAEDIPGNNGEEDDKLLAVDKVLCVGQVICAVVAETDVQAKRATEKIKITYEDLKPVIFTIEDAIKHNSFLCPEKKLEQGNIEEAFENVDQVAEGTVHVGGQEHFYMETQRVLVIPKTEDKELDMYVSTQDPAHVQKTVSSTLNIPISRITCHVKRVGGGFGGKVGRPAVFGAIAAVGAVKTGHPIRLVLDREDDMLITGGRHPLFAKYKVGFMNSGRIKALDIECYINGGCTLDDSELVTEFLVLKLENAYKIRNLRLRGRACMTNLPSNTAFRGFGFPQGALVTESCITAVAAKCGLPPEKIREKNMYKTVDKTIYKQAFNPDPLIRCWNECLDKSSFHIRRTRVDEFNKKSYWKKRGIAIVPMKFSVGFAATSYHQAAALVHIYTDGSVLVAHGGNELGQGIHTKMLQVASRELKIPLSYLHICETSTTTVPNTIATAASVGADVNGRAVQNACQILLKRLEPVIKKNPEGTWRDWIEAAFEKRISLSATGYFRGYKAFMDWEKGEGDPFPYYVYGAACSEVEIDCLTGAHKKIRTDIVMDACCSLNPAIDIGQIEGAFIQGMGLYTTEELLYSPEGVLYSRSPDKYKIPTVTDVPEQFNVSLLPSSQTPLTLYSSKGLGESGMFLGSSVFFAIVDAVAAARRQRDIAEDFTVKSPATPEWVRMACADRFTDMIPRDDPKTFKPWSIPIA

[1] = limit given jointly for mAOX3, mAOX4 and mAOX2

Km (mAOX3; [1]) [mM] | Km (mAOX2; [1]) [mM] | Km (mAOX3; range printed jointly for mAOX3, mAOX4 and mAOX2) [mM] | Km (mAOX2) [mM] | Structure (SMILES)
< 0.002 | < 0.002 |  |  | O=Cc1ccc(O)cc1 [4-hydroxybenzaldehyde]
 |  | 4.4 to 4.6 | 4.4 to 4.6 | CC=O [acetaldehyde]
